Results as given in patent publication US7449459B2, “Inhibitors of soluble adenylate cyclase” (Bayer Schering Pharma AG, priority 2006, dated 2008).

Molecular target: soluble, sperm-specific adenylate cyclase (sAC) (Homo sapiens, UniProt Q96PN6)
Experiment: sAC-Assay (HTRF cAMP detection)
Format: biochemical
Conditions: inhibition of the soluble adenylate cyclase
Description: In a suitable buffer system, the soluble, sperm-specific adenylate cyclase catalyzes the reaction of adenosine triphosphate (ATP) to cyclic adenosine monophosphate (cAMP) and pyrophosphate. Free cAMP that is generated in this way is then used in a competitive detection process, in which the binding of a europium kryptate (Eu[K])-labeled anti-cAMP antibody (anti cAMP-Eu[K]-AK) to a cAMP-molecule-labeled, modified allophycocyanine-1 molecule (cAMP-XL665) is prevented. In the absence of exogenic cAMP, after excitation at 335 nm, it results in a fluorescence resonance energy transfer (FRET) between the anti cAMP-Eu[K]-AK (FRET-donor) and the cAMP-XL665 molecule (FRET-acceptor). This process is quantified at different times (time-resolved) based on the emission of FRET-acceptor XL665 (665 nm and 620 nm). A signal drop (measured as a wave ratio; calculation formula: [(E665 nm/E620 nm)×10000]) can be attributed to the presence of cAMP and thus to the activity of sAC.
First, 1.5 μl of the test substance (in 30% DMSO), only 30% DMSO in the solvent controls, is introduced per recess in a 384-hole test plate (polystyrene; 384, NV). […]
After an additional incubation of 90 minutes at room temperature, the HTRF result is measured either on the Packard Discovery or with the RubiStar HTRF measuring device (Delay: 50 μs; Integration time: 400 μs).

soluble, sperm-specific adenylate cyclase (sAC), sequence (Q96PN6 whole entry): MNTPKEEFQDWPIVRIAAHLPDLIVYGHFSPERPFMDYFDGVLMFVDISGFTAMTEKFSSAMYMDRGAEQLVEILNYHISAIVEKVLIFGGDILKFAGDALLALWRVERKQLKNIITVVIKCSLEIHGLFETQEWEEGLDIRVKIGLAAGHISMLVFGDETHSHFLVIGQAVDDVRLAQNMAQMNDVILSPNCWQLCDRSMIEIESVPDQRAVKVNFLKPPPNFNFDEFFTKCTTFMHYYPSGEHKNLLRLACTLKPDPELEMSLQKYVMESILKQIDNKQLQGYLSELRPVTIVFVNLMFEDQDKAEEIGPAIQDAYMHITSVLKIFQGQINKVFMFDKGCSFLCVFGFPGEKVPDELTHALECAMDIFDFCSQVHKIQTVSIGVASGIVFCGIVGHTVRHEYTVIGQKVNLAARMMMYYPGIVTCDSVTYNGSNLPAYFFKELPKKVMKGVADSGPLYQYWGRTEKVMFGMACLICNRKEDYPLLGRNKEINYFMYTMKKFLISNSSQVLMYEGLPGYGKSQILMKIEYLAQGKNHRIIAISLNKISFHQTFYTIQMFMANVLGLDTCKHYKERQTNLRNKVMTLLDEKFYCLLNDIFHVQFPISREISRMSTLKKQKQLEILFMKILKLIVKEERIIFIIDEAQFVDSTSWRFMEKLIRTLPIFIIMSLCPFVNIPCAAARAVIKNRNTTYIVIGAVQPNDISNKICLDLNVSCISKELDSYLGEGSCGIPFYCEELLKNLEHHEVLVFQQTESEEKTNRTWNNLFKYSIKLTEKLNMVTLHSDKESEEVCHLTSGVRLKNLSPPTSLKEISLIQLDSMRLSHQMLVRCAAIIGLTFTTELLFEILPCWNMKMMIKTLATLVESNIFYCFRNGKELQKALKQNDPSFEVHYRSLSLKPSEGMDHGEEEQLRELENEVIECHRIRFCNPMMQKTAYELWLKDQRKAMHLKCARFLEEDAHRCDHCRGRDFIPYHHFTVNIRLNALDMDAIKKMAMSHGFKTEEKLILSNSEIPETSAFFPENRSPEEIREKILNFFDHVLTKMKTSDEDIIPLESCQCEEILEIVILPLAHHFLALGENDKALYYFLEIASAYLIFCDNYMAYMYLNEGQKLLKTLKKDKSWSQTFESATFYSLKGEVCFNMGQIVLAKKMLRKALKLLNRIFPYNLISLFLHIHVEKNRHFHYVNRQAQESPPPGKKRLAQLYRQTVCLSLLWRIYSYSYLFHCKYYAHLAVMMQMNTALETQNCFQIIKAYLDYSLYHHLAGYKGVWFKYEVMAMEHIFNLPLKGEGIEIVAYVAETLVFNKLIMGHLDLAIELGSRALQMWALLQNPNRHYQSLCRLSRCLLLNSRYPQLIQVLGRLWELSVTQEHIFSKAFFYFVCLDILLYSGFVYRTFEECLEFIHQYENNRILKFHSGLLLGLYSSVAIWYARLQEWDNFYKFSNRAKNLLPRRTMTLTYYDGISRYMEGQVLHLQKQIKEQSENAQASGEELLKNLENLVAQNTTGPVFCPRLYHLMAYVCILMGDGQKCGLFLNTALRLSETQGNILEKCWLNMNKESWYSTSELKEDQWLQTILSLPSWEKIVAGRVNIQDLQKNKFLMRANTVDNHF

Structure (SMILES)	IC50 [µM]
CC(O)CNC(=O)/C=C/c1[nH]c2ccc(NS(=O)(=O)c3ccc(C(C)(C)C)cc3)cc2c1-c1ccccc1 (racemic) [(±)-(E)-3-[5-(4-tert-Butyl-phenylsulfonylamino)-3-phenyl-1H-indol-2-yl]-N-(2-hydroxy-propyl)-acrylic acid amide]	4.4
CC(C)(C)c1ccc(S(=O)(=O)Nc2ccc3[nH]c(/C=C/C(=O)NCCN4CCOCC4)c(-c4ccccc4)c3c2)cc1	3.5
